Assays:
[1] = Drug induced phase transition temperature with DPPA liposome.; format: functional
Cavia porcellus [2] = organism: Cavia porcellus
Description: Elevation of the threshold alternating current to induce arrhythmia in isolated guinea pig heart.

physchem [3] = details: octanol/water
Description: Partition coefficient (logP) (HPLC)

physchem [4] = assay: physchem
Description: Dissociation constant (pKa)

Bos taurus [5] = organism: Bos taurus; assay: Concentration at which Ca+ binding to phosphatidylserine monolayers is reduced to 50% of control; format: functional
Cavia porcellus [6] = organism: Cavia porcellus; assay: Concentration required to elevate the threshold of alternating current to induce arrhythmia in isolated guinea pig heart by 50%; Vl = very low activity; format: functional
Cavia porcellus [7] = organism: Cavia porcellus; assay: Concentration required to elevate the threshold of alternating current to induce arrhythmia in isolated guinea pig heart by 50%; Vl = Very low activity; format: functional
Bos taurus [8] = organism: Bos taurus; assay: Concentration at which Ca+ binding to phosphatidylserine monolayers from bovine brain is reduced to 50% of control; format: functional
Cavia porcellus [9] = organism: Cavia porcellus; assay: Concentration required to elevate the threshold of alternating current to induce arrhythmia in isolated guinea pig heart by 50%; VL = Very low activity; format: functional

Row | SMILES | logP (physchem [3]) | pKa (physchem [4]) | Log IC50 (Bos taurus [5]) | Log IC50 (Bos taurus [8]) | Tt [1] | Log AC50 (Cavia porcellus [2]) | Log AC50 (Cavia porcellus [6]) | Log AC50 (Cavia porcellus [7]) | Log AC50 (Cavia porcellus [9])
1 | CN(C)CCCc1ccc(O)c(Cl)c1.Cl | 0.97 | – | – | – | 294 k | 3.82 uM | – | – | –
2 | CN(C)CCCc1ccc([N+](=O)[O-])cc1.Cl | 1.5 | 10.7 | 4.15 uM | – | 307 k | – | Very low activity | – | –
3 | COc1ccc(CCCN(C)C)cc1Cl.Cl | 1.92 | 10.8 | – | – | – | 4.44 uM | – | – | –
4 | CN(C)CC(Cc1ccccc1)c1ccccc1.Cl (centres undefined) | 2.59 | 9.93 | – | – | 309 k | 4.13 uM | – | – | –
5 | CCc1ccc(CCCN(C)C)cc1.Cl | 2.45 | 10.6 | – | – | 300 k | 3.94 uM | – | – | –
6 | CCCc1ccc(CCCN(C)C)cc1.Cl | 2.89 | 10.5 | – | – | 295 k | 4.85 uM | – | – | –
7 | CN(C)CCCc1ccc(O)cc1.Cl | 0.35 | – | 2.72 uM | – | 314 k | 3.29 uM | – | – | –
8 | CN(C)CCC(c1ccccc1)c1ccccc1.Cl | 2.76 | 10 | 4.85 uM | – | 308 k | 4.37 uM | – | – | –
9 | CN(C)CCCc1ccc(Cl)cc1.Cl | 2.21 | 10.6 | – | 3.85 uM | 302 k | 4.31 uM | – | – | –
10 | CN(C)CCCc1ccccc1.Cl | 1.5 | 11 | 3 uM | – | 3.8 k | 3.55 uM | – | – | –
11 | CN(C)CCCc1ccc(Br)cc1 | 2.37 | 10.6 | – | – | – | – | – | – | –
12 | CN(C)CCCc1ccc(N)cc1.Cl | 0.12 | 10.9 | – | – | – | 3 uM | – | – | –
13 | CN(C)CCCc1cccnc1.Cl | 0.57 | 10.7 | 3.6 uM | – | – | – | – | – | Very low activity

More lines, main results first:

Row | logP (physchem [3]) | pKa (physchem [4]) | Log IC50 (Bos taurus [5]) | Log IC50 (Bos taurus [8]) | SMILES | Tt [1] | Log AC50 (Cavia porcellus [2]) | Log AC50 (Cavia porcellus [6]) | Log AC50 (Cavia porcellus [7]) | Log AC50 (Cavia porcellus [9])
14 | 3.3 | 9.82 | – | – | CCOc1ccc(-c2ccc(CCCN(C)C)cc2)cc1.Cl | – | 4.8 uM | – | – | –
15 | 2.95 | 9.85 | 5.4 uM | – | COc1ccc(-c2ccc(CCCN(C)C)cc2)cc1.Cl | 296 k | 4.96 uM | – | – | –
16 | 0.44 | – | 3.4 uM | – | C[N+](C)(C)CCCc1ccccc1.[Cl-] | 307 k | – | – | Very low activity | –
17 | 3.45 | 9.96 | – | – | CN(C)CCCc1ccc(-c2ccc(Cl)cc2)cc1.Cl | – | 5.7 uM | – | – | –
18 | 2 | 10.8 | – | – | Cc1ccc(CCCN(C)C)cc1.Cl | 303 k | 4.02 uM | – | – | –
19 | 2.17 | – | – | – | COc1ccc(-c2ccc(CCC[N+](C)(C)C)cc2)cc1 | – | – | – | Very low activity | –
20 | 2.99 | 9.88 | 5.4 uM | – | CN(C)CCCc1ccc(-c2ccccc2)cc1.Cl | 285 k | 4.8 uM | – | – | –
21 | 2.75 | 10.5 | – | – | CC(C)c1ccc(CCCN(C)C)cc1.Cl | 299 k | 4.22 uM | – | – | –
22 | 2.1 | 9.32 | 4.4 uM | – | CN(C)CCCc1ccc(-c2ccc(O)cc2)cc1.Cl | 349 k | 4.43 uM | – | – | –
23 | 2.96 | 10 | 5.4 uM | – | CN(C)CCCc1ccc(C(C)(C)C)cc1.Cl | 297 k | 4.52 uM | – | – | –
24 | 2.62 | 10.3 | 4.35 uM | – | CN(C)CCCc1ccc2ccccc2c1.Cl | 297 k | 4.52 uM | – | – | –
25 | 3.36 | 9.85 | – | – | CN(C)CCC(c1ccccc1)c1ccc(-c2ccccc2)cc1 (centres undefined) | 294 k | – | – | – | –

— ChEMBL document CHEMBL1132180, “Synthesis, pharmacological and biophysical characterization, and membrane-interaction QSAR analysis of cationic amphiphilic model compounds” (J Med Chem, 1999)
